The test system of test [1] is in vitro eye lens of rabbits. Description: resisting oxidative damage to in vitro eye lens of rabbits induced by H2O2 (lens opacification grading). The test is classed as cell-based. As to conditions: rabbit lens, 2% H2O2 + 0.02% FeCl3, 24 h culture, sample and BDL 0.5 mmol/L. The text has this:
(§1) Some typical compounds are selected for the research on the capability of in vitro resisting oxidative damage to crystalline lens induced by H2O2. The experiments are illustrated as follows:
(§2) Kill rats and rabbits, take out their eyeballs and rinse with saline containing 500 u/mL penicillin, split the eyeball from the posterior to remove eyeball wall and vitreous body, strip off the suspensory ligament, take out the crystalline lens and wash with PBS solution containing 500 u/mL penicillin and 0.5 mg/mL streptomycin for 5 min Before experiment, check with anatomical lens to confirm that there is no opacification or other abnormal condition in the crystalline lens, then place the crystalline lens in the sterilized 12-well plate containing 2 mL DMEM/high glucose (a product from Beijing Thermo Fisher Scientific Biochemical Product Co., Ltd.) sterile culture solution (which contains 100 u/mL penicillin and 0.1 mg/mL streptomycin), add different compounds for screening and pre-culture in a incubator with temperature of 37° C., humidity of 95% and 5% CO2 for 1 h, subsequently add 2 mL DEME culture solution containing H2O2 and FeCl3 (namely, total 4 mL culture solution in each well) (the total concentration of H2O2 in each well is 2% for rabbits, and 5% for rats, and the concentrations of FeCl3 are all 0.02%), culture under the same conditions for 24 hours. The experiments are divided into several groups as below and carried out in batches, with each batch provided with negative control group and model group.
(§3) A. Negative control group: DMEM culture solution without H2O2.
(§4) B. Model group (oxidative damage group): DMEM culture solution containing H2O2 and FeCl3.
(§5) C. Vitamin C group: besides the ingredients of the model group, further containing vitamin C (the final concentration is 1 mmol/L).
(§6) D. Bendazac lysine (BDL) group (BDL is provided by Zhejiang Shapuaisi Pharmaceutical Co. Ltd., and its purity is more than 98.5%): besides the ingredients of model group, further containing BDL (the final concentration is 0.5 mmol/L).
(§7) E. Sample group: besides the ingredients of model group, further containing sample (the final concentration is 0.5 mmol/L).
(§8) Evaluation criteria: according to large amount of experiments on the model group, the ratio between the percentage of different degrees of lens opacification in the groups and the percentage of different degrees of lens opacification in the model group is utilized as the definition, wherein, for slight improvement (√), the percentage of ++ (degrees II, III) should be lower than 67%, and the percentage of + (degree I) should be higher than 33%; for moderate improvement (√√), the percentage of ++(degrees II, III) further decreases; and the percentage of 0 (−) appears; for significant improvement (√√√), the percentage of ++ (degrees II, III) and + (degree I) disappears, and the lens are almost transparent.

Test [2] has as its system in vitro eye lens of rats. Description: resisting oxidative damage to in vitro eye lens of rats induced by H2O2 (lens opacification grading). The test is classed as cell-based. The conditions noted are these: rat lens, 5% H2O2 + 0.02% FeCl3, 24 h culture, sample and BDL 0.5 mmol/L.
Text: as §1, §2, §3, §4, §5, §6, §7
as §8, with “lens turbidity” for “lens opacification”, “than 72%,” for “than 67%,”, “than 20%;” for “than 33%;”, “improvement (√√)” for “improvement (√√),”, “and +(degree” for “and + (degree”

Turning to `O=C(O)COc1nn(Cc2ccccc2)c2ccccc12` [BDL, Bendazac lysine, reference compound], the “Comments (improvement versus model group)” value in test [1] is on record as “✓”. For the same compound, in test [1] (vitamin C 1 mmol/L), the “Observation Results + (number of lenses with mild opacity, degree I)” value is recorded as 9; the “Observation Results ++ (number of lenses with moderate opacity, degree II)” value came to 3; the “Percentages for different degrees % + Degree (I)” value worked out at 75%; the “Percentages for different degrees % >++ Degrees(I, II)” value is reported as 25%. Moreover, the “Comments (improvement versus model group)” value in test [2] is on record as “✓”. Further, in test [2] (vitamin C 1 mmol/L), the “Observation Results + (number of lenses with mild opacity, degree I)” value is 30; the “Observation Results ++ (number of lenses with moderate opacity, degree II)” value was determined as 22; the “Observation Results +++ (number of lenses totally opacified, degree III)” value stood at 3; the “Percentages % + Degree (I)” value is on record as 54%. For the same compound, the “Percentages % >++ Degrees (II, III)” value in test [2] (vitamin C 1 mmol/L) is 46%.

For the origin of these results see US8637677B2, “Organic dicarboxylic acids, salts and preparation method thereof” (Southeast University, priority 2009, dated 2014).
